Reference: patent US20250066300A1, “3-(2-(DIMETHYLAMINO)ETHYL)-1H-INDOL-4-yl OLIGOMERIC DERIVATIVES” (priority 2023, published 2025)

Assay: Psilocin conversion in the dose formulation (HPLC-MS/MS)
Type: physicochemical
Settings: saline formulation, final pH 6.3, aliquots stored at −80° C. until analysis
Description: Compounds: Compound 122 was dissolved in saline (1.3 mg/kg) and adjusted to pH 7.4 for SC administration to the neck scruff at a dosing volume of 5 mL/kg. The final pH was checked prior to dosing, and found to be pH 6.3. This dose was selected as it delivered 0.72 mg/kg psilocin (assuming 100% conversion of the pro-drug). Aliquots of the formulation was additionally collected and stored at −80° C. until analysis by high performance liquid chromatography with tandem mass spectrometry (HPLC-MS/MS) to confirm dosing of compound 122 and minimal conversion to psilocin pre-dose (<2.5%).
[…]. Three aliquots from the dose formulations were diluted to a nominal concentration of 5 μg/mL, and injected in triplicate into the HPLC-MS/MS. The relative percentage of the psilocin peak in the dose formulation compared to the psilocin standard peak at 5 μg/mL, was used to assess for psilocin conversion in the dosing formulations.

## CN(C)CCc1c[nH]c2cccc(OC(=O)CCCC(=O)Oc3cccc4[nH]cc(CCN(C)C)c34)c12 [Compound 122, bis(3-(2-(dimethylamino)ethyl)-1H-indol-4-yl) glutarate]
  conversion to psilocin pre-dose in dose formulation: < 2.5%
